In experiment [1] the test system is Mouse embryonic stem (ES) cells, TC1. In words: Cardiomyogenesis modulating activity assay (alpha-MHC promoter EGFP, embryoid bodies, FACS/fluorescence microscopy). The experiment is classed as cell-based. Conditions: embryoid bodies treated for 5 days, FACS. The method, then: a. Cell culture: Mouse embryonic stem (ES) cells, TC1 derived from 129/S6 strain were cultured on irradiated feeder layer in the culture medium which is high-glucose DMEM (Gibco) BRL, Germany) supplemented with 15% FBS (Hyclone), 0.1 mM beta-mercaptoethanol, […] sodium pyruvate, 1 mM L-glutamine and 1× non-essential amino acids.
b. Establishment of alpha-MHC stably transformed ES cell line: A construct (FIG. 8) containing 1.8 kb promoter sequence of the mouse alpha-MHC gene between EcoRI and SalI sites of pEGFP-1 (Clontech Laboratories, Inc, CA, USA) was linearized at XhoI site, and was introduced into mouse ES cells, TC1, using the Gene Pulser II (BioRad, MA). A selection medium containing G418 was applied for two weeks from 24 hours after electroporation. The selected ES cell clones were harvested and expanded on the feeder cell layer. The green fluorescence-expressing clones when differentiated into cardiomyocytes were used in this experiment.
c. Cardiomyogenesis modulating activity assay: Embryoid body (EB) was formed by hanging drop culture using about a number of 600 (six hundred) ES cells for two days and it was further expanded by culturing in suspension condition on a Petri-dish for another two days. Then each EB was plated on a well of 96 well culture plates. Test compounds were dissolved in DMSO and diluted with culture media (final 0.05% DMSO) and EB was treated with test compound for 5 days. Culture medium was changed every three days after plating. Expression level of EGFP was measured with FACS (Beckman). For FACS analysis, differentiating cells were dissociated with trypsin. For the determination of the extent of differentiation, EB was observed and photographed with an inverted fluorescence microscope (Zeiss, Germany). Number of beating EBs was counted under the microscope and recorded once daily.

Experiment [2] concerns human bone marrow derived-mesenchymal stem cells (hBMMSC). Put plainly: Osteogenesis modulating activity assay by test compound alone (ALP activity). In kind it is cell-based. Conditions: Homo sapiens, 168 h; hBMMSC, 20 μM test compound alone, six to seven days; read-out: Osteogenesis: fold change of ALP activity compared with DMSO control. As for the experimental part:
Cell culture: Human bone marrow derived-mesenchymal stem cells (hBMMSC) were isolated from normal subjects.
Osteogenesis modulating activity assay by test compound alone: hBMMSC were cultivated in the culture medium and cells were seeded into 96-well culture plates and test compounds were dissolved in DMSO and diluted with culture media (final 0.01% DMSO) and added into the media (final concentration of test compound was 20 μM) and cultured in the CO2 incubator (37° C., 5% CO2). Culture medium was changed every two days with fresh one and compound was treated again whenever medium was changed. Six to seven days after incubation, Alkaline phosphatase activity of cell lysates was measured by colorimetry. For the determination of mineralization within the cells, Von Kossa staining or Alizarin Red S assay was performed 10-14 days after incubation.

For the compound `O=C1[C@H](CCc2ccccc2)N2C(=O)CN(Cc3ccccc3)N(C(=O)NCc3ccccc3)[C@H]2CN1CCc1ccc(Cl)cc1` [#75], the “Cardiomyogenesis: fold change of EGFP expression level compared with DMSO control” value (from here on “Cardiomyogenesis: fold change”) in experiment [1] worked out at 0.50 fold. Also, in experiment [2], the fold induction at 20 µM was determined as 1.16.
In the case of `COc1ccc(C[C@H]2C(=O)N(CCc3ccc(Cl)cc3)C[C@H]3N2C(=O)CN(Cc2ccccc2)N3C(=O)NCc2ccccc2)cc1` [#76], the “Cardiomyogenesis: fold change” value in experiment [1] is reported as 1.24 fold. Further, the fold induction at 20 µM in experiment [2] amounted to 1.58.
As for `O=C1[C@H](Cc2ccc(OCc3ccccc3)cc2)N2C(=O)CN(Cc3ccccc3)N(C(=O)NCc3ccccc3)[C@H]2CN1CCc1ccc(Cl)cc1` [#77], in experiment [1], the “Cardiomyogenesis: fold change” value was determined as 1.40 fold. Besides, in experiment [2], the fold induction at 20 µM stood at 0.98.
The corresponding values for `Cc1ccc(C[C@H]2C(=O)N(CCc3ccc(Cl)cc3)C[C@H]3N2C(=O)CN(Cc2ccccc2)N3C(=O)NCc2ccccc2)cc1` [#78] are 1.70 fold and 0.75.
With `O=C1[C@H](CC2CCCCC2)N2C(=O)CN(Cc3ccccc3)N(C(=O)NCc3ccccc3)[C@H]2CN1CCc1ccc(Cl)cc1` [#79], the “Cardiomyogenesis: fold change” value in experiment [1] is recorded as 1.67 fold. Further, the fold induction at 20 µM in experiment [2] was determined as 0.58.
For `O=C1[C@H](Cc2ccc(F)cc2)N2C(=O)CN(Cc3ccccc3)N(C(=O)NCc3ccccc3)[C@H]2CN1CCc1ccc(Cl)cc1` [#80], in experiment [1], the “Cardiomyogenesis: fold change” value was found to be 1.49 fold. Besides, the fold induction at 20 µM in experiment [2] came out at 0.19.
Turning to `O=C1[C@H](Cc2ccc(F)c(F)c2)N2C(=O)CN(Cc3ccccc3)N(C(=O)NCc3ccccc3)C2CN1CCc1ccc(Cl)cc1` (some centres unmarked) [#81], the “Cardiomyogenesis: fold change” value in experiment [1] was 0.81 fold. In addition, in experiment [2], the fold induction at 20 µM was determined as 1.84.
Take `C=CCN1CC(=O)N2[C@@H](Cc3ccc(OCc4ccccc4)cc3)C(=O)N(Cc3ccc(F)cc3)C[C@@H]2N1C(=O)NCc1ccccc1` [#83]: the “Cardiomyogenesis: fold change” value in experiment [1] amounted to 2.02 fold. The fold induction at 20 µM in experiment [2] is 0.36.
Take `C=CCN1CC(=O)N2[C@@H](Cc3ccc(C)cc3)C(=O)N(Cc3ccc(F)cc3)C[C@@H]2N1C(=O)NCc1ccccc1` [#84]: in experiment [1], the “Cardiomyogenesis: fold change” value worked out at 1.32 fold. Also, in experiment [2], the fold induction at 20 µM turned out to be 0.69.
The corresponding values for `C=CCN1CC(=O)N2[C@@H](Cc3ccc(F)cc3)C(=O)N(Cc3ccc(F)cc3)C[C@@H]2N1C(=O)NCc1ccccc1` [#85] are 1.65 fold and 0.62.
The corresponding values for `C=CCN1CC(=O)N2[C@@H](CC(C)C)C(=O)N(CCc3ccccc3)C[C@@H]2N1C(=O)NCc1ccccc1` [#86] are 1.34 fold and 0.54.
With `C=CCN1CC(=O)N2[C@@H](Cc3ccccc3)C(=O)N(CCc3ccccc3)C[C@@H]2N1C(=O)NCc1ccccc1` [#87], the “Cardiomyogenesis: fold change” value in experiment [1] turned out to be 0.89 fold. Further, the fold induction at 20 µM in experiment [2] amounted to 0.59.
On to `C=CCN1CC(=O)N2C(CC(=O)O)C(=O)N(CCc3ccccc3)C[C@@H]2N1C(=O)NCc1ccccc1` (some centres unmarked) [#88], for which the “Cardiomyogenesis: fold change” value in experiment [1] came out at 1.34 fold. In addition, the fold induction at 20 µM in experiment [2] was 0.64.
Consider `C=CCN1CC(=O)N2C(CN(CCc3ccccc3)C(=O)[C@@H]2CCC(=O)O)N1C(=O)NCc1ccccc1` (some centres unmarked) [#89], for which, in experiment [1], the “Cardiomyogenesis: fold change” value was found to be 1.26 fold. For the same compound, the fold induction at 20 µM in experiment [2] was found to be 1.16.
As for `C=CCN1CC(=O)N2[C@@H](c3ccccc3)C(=O)N(CCc3ccccc3)C[C@@H]2N1C(=O)NCc1ccccc1` [#90], the “Cardiomyogenesis: fold change” value in experiment [1] was determined as 2.10 fold. Further, the fold induction at 20 µM in experiment [2] turned out to be 0.51.
`C=CCOC(=O)NCCC[C@@H]1C(=O)N(CCc2ccccc2)C[C@H]2N1C(=O)CN(CC=C)N2C(=O)NCc1ccccc1` [#91]: the “Cardiomyogenesis: fold change” value in experiment [1] is reported as 2.23 fold. Moreover, the fold induction at 20 µM in experiment [2] worked out at 1.13.
The corresponding values for `CCCN1CC(=O)N2C(Cc3ccc(O)cc3)C(=O)N(CCC(C)C)CC2N1C(=O)NCc1ccccc1` (centres unmarked) [#92] are 2.13 fold and 0.7.
As to `CCCN1CC(=O)N2C(CN(CCC(C)C)C(=O)[C@@H]2CC(C)C)N1C(=O)NCc1ccccc1` (some centres unmarked) [#93], the “Cardiomyogenesis: fold change” value in experiment [1] is 0.57 fold. In experiment [2], the fold induction at 20 µM stood at 0.63.
In the case of `CCCN1CC(=O)N2C(CC(=O)O)C(=O)N(CCC(C)C)C[C@H]2N1C(=O)NCc1ccccc1` (some centres unmarked) [#94], the “Cardiomyogenesis: fold change” value in experiment [1] is listed as 3.02 fold. In addition, the fold induction at 20 µM in experiment [2] amounted to 0.69.
As for `CCCN1CC(=O)N2C(CN(CCC(C)C)C(=O)[C@@H]2CCC(=O)O)N1C(=O)NCc1ccccc1` (some centres unmarked) [#95], in experiment [1], the “Cardiomyogenesis: fold change” value is reported as 2.22 fold. The fold induction at 20 µM in experiment [2] is 1.19.
Take `CCCCNC(=O)N1[C@H]2CN(CCc3ccc(OC)cc3)C(=O)[C@H](Cc3ccc(O)cc3)N2C(=O)CN1Cc1ccc(C)cc1` [#96]: the “Cardiomyogenesis: fold change” value in experiment [1] is 0.54 fold. Further, the fold induction at 20 µM in experiment [2] worked out at 0.77.
Take `CCCCNC(=O)N1[C@H]2CN(CCc3ccc(OC)cc3)C(=O)[C@H](CC(C)C)N2C(=O)CN1Cc1ccc(C)cc1` [#97]: in experiment [1], the “Cardiomyogenesis: fold change” value was determined as 0.71 fold. Moreover, the fold induction at 20 µM in experiment [2] amounted to 0.54.
The corresponding values for `CCCCNC(=O)N1C2CN(CCc3ccc(OC)cc3)C(=O)[C@H](CC(=O)O)N2C(=O)CN1Cc1ccc(C)cc1` (some centres unmarked) [#98] are 3.34 fold and 0.26.
For the compound `CN1C(=O)N2[C@@H](Cc3ccc(O)cc3)C(=O)N(CCc3ccc(F)cc3)C[C@@H]2N1C(=O)NCc1ccccc1` [#99], the “Cardiomyogenesis: fold change” value in experiment [1] came out at 1.74 fold. For the same compound, the fold induction at 20 µM in experiment [2] came to 0.46.
In the case of `CN1C(=O)N2[C@@H](Cc3ccc(O)cc3)C(=O)N(Cc3cccc4ccccc34)C[C@@H]2N1C(=O)NCc1ccccc1` [#100], the “Cardiomyogenesis: fold change” value in experiment [1] is given as 1.35 fold. The fold induction at 20 µM in experiment [2] amounted to 1.11.
As for `CCC(C)[C@H]1C(=O)N(CC2CCCCC2)C[C@H]2N1C(=O)N(C)N2C(=O)NCc1ccccc1` (some centres unmarked) [#101], the “Cardiomyogenesis: fold change” value in experiment [1] stood at 2.32 fold. Also, in experiment [2], the fold induction at 20 µM turned out to be 1.28.
Consider `CCCC[C@H]1C(=O)N(CCc2ccc(OC)c(OC)c2)C[C@H]2N1C(=O)N(C)N2C(=O)NCc1ccccc1` [#102], for which the “Cardiomyogenesis: fold change” value in experiment [1] amounted to 1.01 fold. Further, in experiment [2], the fold induction at 20 µM is 1.61.
The corresponding values for `CCC(C)[C@H]1C(=O)N(CCC(c2ccccc2)c2ccccc2)C[C@H]2N1C(=O)N(C)N2C(=O)NCc1ccccc1` (some centres unmarked) [#103] are 1.98 fold and 0.98.
With `CCC(CC)N1CC2N(C(=O)N(C)N2C(=O)NCc2ccccc2)[C@@H](Cc2ccc(O)cc2)C1=O` (some centres unmarked) [#104], the “Cardiomyogenesis: fold change” value in experiment [1] was 0.62 fold. In experiment [2], the fold induction at 20 µM came to 1.42.
Regarding `CC(C)C[C@H]1C(=O)N(C2CCCCC2)C[C@H]2N1C(=O)N(C)N2C(=O)NCc1ccccc1` [#105], in experiment [1], the “Cardiomyogenesis: fold change” value came to 1.12 fold. The fold induction at 20 µM in experiment [2] turned out to be 0.8.
Turning to `CC(C)[C@H]1C(=O)N(Cc2cccc(Br)c2)C[C@H]2N1C(=O)N(C)N2C(=O)NCc1ccccc1` [#106], the “Cardiomyogenesis: fold change” value in experiment [1] is listed as 1.25 fold. In addition, in experiment [2], the fold induction at 20 µM turned out to be 0.37.
Regarding `CCCCOCCCN1C[C@H]2N(C(=O)N(C)N2C(=O)NCc2ccccc2)[C@@H](CCSC)C1=O` [#107], the “Cardiomyogenesis: fold change” value in experiment [1] is listed as 0.59 fold. In addition, in experiment [2], the fold induction at 20 µM was 0.66.
For `CN1C(=O)N2C(CN(CCSCc3ccccc3)C(=O)[C@@H]2Cc2ccc(O)cc2)N1C(=O)NCc1ccccc1` (some centres unmarked) [#108], in experiment [1], the “Cardiomyogenesis: fold change” value is 1.19 fold. Besides, the fold induction at 20 µM in experiment [2] turned out to be 0.94.
The corresponding values for `CCC(C)[C@H]1C(=O)N(Cc2cccc(Cl)c2)C[C@H]2N1C(=O)N(C)N2C(=O)NCc1ccccc1` (some centres unmarked) [#109] are 0.97 fold and 1.

These data come from US20090215783A1, “COMPOSITION FOR INDUCTION OR INHIBITION OF STEM CELL DIFFERENTIATION” (CHOONGWAE PHARMA CORPORATION, priority 2006, published 2009).
